From a melting point compilation (Tetko et al.; mined from patent text by program, amines drawn as free bases though some values may be those of a salt) come the findings set out here.

The structures appear in SMILES notation.

As a reminder, the melting point is the temperature, or range, at which the solid turns liquid.

Compound `C=CCOc1ccc(COc2ccc(CC(=O)O)cc2Cl)cc1Cl` gave a melting point of 132 to 134 °C. For the compound `Cn1cc(Br)cc(Nc2ccncn2)c1=O`, the melting point is 217 to 219 °C.

In turn, `CCCCN(c1nc(N(CC)CC)nc(N(CCCC)C2CC(C)(C)N(OC)C(C)(C)C2)n1)C1CC(C)(C)N(OC)C(C)(C)C1` showed a melting point of 109 to 112 °C. The compound `CCCc1c(OCCCCC(=O)O)ccc(C(C)=O)c1O` showed a melting point of 97 to 102 °C. As to `CCCc1c(OCCCOc2ccc(C(=O)CCC(=O)O)cc2F)ccc(C(C)=O)c1O`, the melting point is 142 to 144 °C. `COc1cccc(NC(=O)Nc2nc3nc(NCCCN4CCN(C)CC4)ncc3cc2-c2c(Cl)cccc2Cl)c1` came in with a melting point of 87.5 to 92.5 °C. Turning to `COc1ccc(C(=O)c2nccs2)cc1OCc1ccc2ccccc2c1`, the melting point was found to be 80 °C. The compound `CCOC(=O)/C=C/c1ccc(OC(C)C)cc1Oc1ncc(C(F)(F)F)cc1Cl` yielded a melting point of 84.5 to 85 °C. Compound `CC(C)(C)OC(=O)NCc1nc(C(=O)O)cs1` displayed a melting point of 185 °C.

Turning to `COC(=O)c1nc(-c2cc([N+](=O)[O-])c(Cl)cc2F)cc(N)c1Cl`, the melting point lay in the range of 161 to 163 °C. As for `CCOC(=O)C1CCc2ccc(NC(=O)OC(C)(C)C)c(C)c2O1` (centres undefined), the melting point was 123 to 124 °C. As to `O=C1Nc2ccccc2C1=Cc1cccs1`, the melting point was 208 to 210 °C.

Take `NC(=O)C1(/C=C2\CN3C(=O)CC3O2)C=CC=CC1` (centres undefined): the melting point was 197 to 199 °C. In the case of `COc1cc(OCc2ccccn2)ccc1/C=C/c1cc(/C=C/c2ccc3ccn(C)c3c2)[nH]n1`, the melting point fell in the range of 172 to 174 °C. In turn, `Cc1cccc(NC(=O)NCC(=O)N2[C@@H](c3ccccc3)CC[C@H]2c2ccccc2)c1` returned a melting point of 168 °C.

`S=C(NCCN1CCOCC1)Nc1nccs1` had a melting point of 150 to 152 °C.

Compound `O=C(Nc1cccc2c1C(=O)c1c-2n[nH]c1C1CCN(C(=O)c2cccs2)CC1)NN1CCOCC1` had a melting point of 218 to 220 °C. Under `Oc1ccc2c(c1)OCC(c1cccc(C(F)(F)F)c1)C2c1ccc(OCCN2CCCCC2)cc1` (centres undefined) stands 118 to 119 °C; under `Cc1cccc(NC(=O)Nc2c(-c3ccccc3Cl)c3cc(C)c(C)cc3n(C)c2=O)c1`, 210 to 211 °C; under `COC(=O)C1=C(C)NC(C)=C(C(=O)OCC2(C)OCCO2)C1c1cccc([N+](=O)[O-])c1` (centres undefined), 143 °C. Under `CCCCCCC1CC(=O)C=C(N)C1` (centres undefined) stands 113 °C; under `CCCCCC(Cc1cnc(CCCC)n1Cc1ccccc1Cl)C(=O)O` (centres undefined), 124 to 127 °C.

Turning to `CCCCCN(C(=O)OC(C)(C)C)c1nc(N(C)Cc2ccccc2)c2ncn(CC(=O)O)c2n1`, the melting point is 116 to 127 °C. On to `O=C(NO)[C@H](CNS(=O)(=O)c1ccc(OCCc2ccccc2)cc1)N1CCOCC1`, for which the melting point turned out to be 77 °C. Under `CCNc1nc(OC)c(C(=O)NC2CCN(C3CCCCC3)C2)nc1Cl` (centres undefined) stands 171 to 173 °C. Compound `CC#CCN(c1nc(-c2ccc(OC)cc2Cl)c(C)s1)C(COC)c1ccccc1` (centres undefined) displayed a melting point of 70 °C. For the compound `O=C(O)CC(c1ccccc1)N1CC(NC(=O)C(=NO)c2ccccc2)C1=O` (centres undefined), the melting point lay within 157 to 158 °C. `O=S(=O)(F)c1ccc(N=Nc2ccc(O)c(Cl)c2)cc1` came in with a melting point of 133 to 134 °C. Compound `COc1ccc(CCNC(=O)OC(C)(C)C)cc1O` came in with a melting point of 100 to 101 °C.

`CCNC(C)c1cc(S(N)(=O)=O)sc1S(=O)(=O)CC` (centres undefined) registered a melting point of 135 to 138 °C.

With `O=C1c2ccccc2C(=O)N1CSc1ccccn1`, the melting point was in the range of 93 to 94 °C.

In turn, `CCN1CCN(C(=O)c2ccc(N)cc2Cl)CC1` showed a melting point of 123 to 124 °C.

On to `COc1cc2c(cc1OC)[C@@H]1c3ccc(C)cc3C(=O)N(Cc3ccccc3)[C@H]1CC2` (relative stereo), for which the melting point was 154 to 157 °C. Consider `CCCCCCCOc1ccc(C(=O)O)c(C)c1`, for which the melting point lay in the range of 74 to 76 °C.
